# Source: ChEMBL document CHEMBL1132935, “Design and synthesis of aryloxyethyl thiocyanate derivatives as potent inhibitors of Trypanosoma cruzi proliferation” (J Med Chem, 2000)
# Columns and labels:
# Trypanosoma cruzi [1] = experiment: 50% inhibitory concentration against the growth of Trypanosoma cruzi (Epimastigotes); type: functional, organism-based
# Trypanosoma cruzi [2] = experiment: 50% inhibitory concentration against the growth of intracellular Trypanosoma cruzi; type: functional, organism-based
# Trypanosoma cruzi [3] = experiment: 90% inhibitory concentration against the growth of Trypanosoma cruzi (Epimastigotes); type: functional
Compound,IC50 (Trypanosoma cruzi [1]),IC50 (Trypanosoma cruzi [2]),IC90 (Trypanosoma cruzi [3])
c1ccc(Oc2ccc(COC3CCCCO3)cc2)cc1 (stereo not drawn),102 µM,,
O=c1c2ccccc2oc2ccc(OCCOC3CCCCO3)cc12 (stereo not drawn),> 60 µM,,
CC(=O)N(CCOC1CCCCO1)c1ccc(Oc2ccccc2)cc1 (stereo not drawn),211 µM,,
Cc1ccccc1Oc1ccc(OCCOC2CCCCO2)cc1 (stereo not drawn),143 µM,,
Brc1cccc(Oc2ccc(OCCOC3CCCCO3)cc2)c1 (stereo not drawn),138 µM,,
Brc1cccc(OCCOC2CCCCO2)c1 (stereo not drawn),104 µM,,
Cc1cccc(C)c1Oc1ccc(OCCOC2CCCCO2)cc1 (stereo not drawn),> 60 µM,,
N#CSCCOc1ccc2oc3ccccc3c(=O)c2c1,54 µM,,
N#CSCCOc1ccc(Oc2ccccc2)cc1,,16 µM,3.5 µM
CC(=O)N(CCO)c1ccc(Oc2ccccc2)cc1,277 µM,,
Clc1ccc(OCCOC2CCCCO2)cc1 (stereo not drawn),> 390 µM,,
c1ccc(Oc2ccc(SCCOC3CCCCO3)cc2)cc1 (stereo not drawn),291 µM,,
C[C@H](COc1ccc(Oc2ccccc2)cc1)SC#N,> 82 µM,,
N#CSCCNc1ccc(Oc2ccccc2)cc1,141 µM,,

# The next lines start with the values.
IC50 (Trypanosoma cruzi [1]),IC50 (Trypanosoma cruzi [2]),IC90 (Trypanosoma cruzi [3]),Compound
2.7 µM,41.7 µM,3.5 µM,Cc1ccccc1Oc1ccc(OCCSC#N)cc1
2.9 µM,,,N#CSCCOc1ccc(Oc2cccc(Br)c2)cc1
1 µM,> 100 µM,30 µM,N#CSCCOc1ccc(Cl)cc1Cl
< 4 µM,,27 µM,N#CSCCOc1cccc(Br)c1
1.4 µM,64.5 µM,18 µM,N#CSCCOc1ccc(Oc2ccccc2)cc1Br
1.8 µM,> 100 µM,23 µM,N#CSCCOc1ccc(Oc2ccccc2)cc1I
14.1 µM,,,N#CSCCOc1ccc(Cl)cc1
24.5 µM,,,N#CSCCOc1ccc(Oc2ccccc2)cc1Cl
25 µM,,,C[C@@H](COc1ccc(Oc2ccccc2)cc1)SC#N
0.87 µM,,32 µM,N#CSCCSc1ccc(Oc2ccccc2)cc1
14.4 µM,,,CC(=O)N(CCSC#N)c1ccc(Oc2ccccc2)cc1
45 µM,,,Ic1cc(Oc2ccccc2)ccc1OCCOC1CCCCO1 (stereo not drawn)
18.7 µM,,,N#CSCc1ccc(Oc2ccccc2)cc1
